Assay results: patent publication US8895585B2, “Nicotinamide derivative or salt thereof” (FUJIFILM Corporation, priority 2010, dated 2014)

Columns and labels:
THP-1 cells = experiment: TNFα generation assay; assay type: cell-based, human; details: Homo sapiens, THP-1, THP-1 cells; Table 22; read-out: IC50 in TNFα generation assay
Summary of the method: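 THP-1 cells differentiated to macrophage-like cells with 10 ng/ml IFN-γ for 2 days, preincubated with compound 30 min at room temperature, then cultured 7 h on plates coated with human IgG (10 μg/ml). Secreted TNFα measured by ELISA or AlphaLISA.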

[1] = molecular target: T1, glutathione S-transferase (GST)-fused full-length human Syk protein (Homo sapiens, UniProt P43405); experiment: Syk enzyme assay; assay type: biochemical; details: Syk enzyme assay, Test Example 1; read-out: IC50 of Syk-inhibitory activity
T1 construct: (GST)-fused full-length human Syk protein; GST (glutathione S-transferase); purchased Carna Biosciences
Summary of the method: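 Baculovirus-expressed enzyme (1.2 ng) was preincubated with compound in HEPES pH 7.0/MgCl2/DTT buffer, 2 min shaking then 13 min at room temperature. Biotin-EDPDYEWPSA-NH2 (0.4 μM final) and ATP (27 μM final) were added for 40 min at room temperature. EDTA stop, streptavidin-XL/PT66-K TR-FRET at 615/665 nm gave IC50.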

IC50 (THP-1 cells)	IC50 [1]	SMILES
< 65 nM	< 10 nM	CC[C@@H](Nc1nc(Nc2ccnc(-c3ccc(OC)cc3F)c2)c(C(N)=O)cc1F)[C@H](C)N [Example 006-332, 6-(((2S,3R)-2-aminopentan-3-yl)amino)-5-fluoro-2-((2-(2-fluoro-4-methoxyphenyl)pyridin-4-yl)amino)nicotinamide]
65 to 130 nM	< 10 nM	CCC[C@@H](Nc1nc(Nc2ccnc(-c3ccccc3F)c2)c(C(N)=O)cc1F)[C@H](C)N [Example 006-333, 6-(((2S,3R)-2-aminohexan-3-yl)amino)-5-fluoro-2-((2-(2-fluorophenyl)pyridin-4-yl)amino)nicotinamide]
65 to 130 nM	< 10 nM	CCC[C@@H](Nc1nc(Nc2ccnc(-c3cccc(OC)c3)c2)c(C(N)=O)cc1F)[C@H](C)N [Example 006-334, 6-(((2S,3R)-2-aminohexan-3-yl)amino)-5-fluoro-2-((2-(3-methoxyphenyl)pyridin-4-yl)amino)nicotinamide]
130 to 200 nM	< 10 nM	CCC[C@@H](Nc1nc(Nc2ccnc(-c3ccc(OC)cc3)c2)c(C(N)=O)cc1F)[C@H](C)N [Example 006-335, 6-(((2S,3R)-2-aminohexan-3-yl)amino)-5-fluoro-2-((2-(4-methoxyphenyl)pyridin-4-yl)amino)nicotinamide]
130 to 200 nM	< 10 nM	CCC[C@@H](Nc1nc(Nc2ccnc(-c3ccc(OC)cc3F)c2)c(C(N)=O)cc1F)[C@H](C)N [Example 006-336, 6-(((2S,3R)-2-aminohexan-3-yl)amino)-5-fluoro-2-((2-(2-fluoro-4-methoxyphenyl)pyridin-4-yl)amino)nicotinamide]
65 to 130 nM	10 to 50 nM	CCCC[C@H](CN)Nc1nc(Nc2ccc3c(cnn3CCOC)c2)c(C(N)=O)cc1F [Example 006-338, (R)-6-((1-aminohexan-2-yl)amino)-5-fluoro-2-((1-(2-methoxyethyl)-1H-indazol-5-yl)amino)nicotinamide]
65 to 130 nM	< 10 nM	COCCn1ncc2cc(Nc3nc(N[C@H](CC4CC4)[C@H](C)N)c(F)cc3C(N)=O)ccc21 [Example 006-343, 6-(((2R,3S)-3-amino-1-cyclopropylbutan-2-yl)amino)-5-fluoro-2-((1-(2-methoxyethyl)-1H-indazol-5-yl)amino)nicotinamide]
65 to 130 nM	< 10 nM	C[C@H](N)[C@@H](CC1CC1)Nc1nc(Nc2ccc3c(cnn3C)c2)c(C(N)=O)cc1F [Example 006-345, 6-(((2R,3S)-3-amino-1-cyclopropylbutan-2-yl)amino)-5-fluoro-2-((1-methyl-1H-indazol-5-yl)amino)nicotinamide]
130 to 200 nM	< 10 nM	COc1ccc2cc(Nc3nc(N[C@H](CC4CC4)[C@H](C)N)c(F)cc3C(N)=O)cnc2c1 [Example 006-346, 6-(((2R,3S)-3-amino-1-cyclopropylbutan-2-yl)amino)-5-fluoro-2-((7-methoxyquinolin-3-yl)amino)nicotinamide]
65 to 130 nM	10 to 50 nM	C[C@H](N)[C@@H](CC1CC1)Nc1nc(Nc2ccc3scnc3c2)c(C(N)=O)cc1F [Example 006-348, 6-(((2R,3S)-3-amino-1-cyclopropylbutan-2-yl)amino)-2-(benzo[d]thiazol-5-ylamino)-5-fluoronicotinamide]
65 to 130 nM	< 10 nM	C[C@H](N)[C@@H](CC1CC1)Nc1nc(Nc2cncc(C3CC3)c2)c(C(N)=O)cc1F [Example 006-350, 6-(((2R,3S)-3-amino-1-cyclopropylbutan-2-yl)amino)-2-((5-cyclopropylpyridin-3-yl)amino)-5-fluoronicotinamide]
65 to 130 nM	< 10 nM	C[C@H](N)[C@@H](CC1CC1)Nc1nc(Nc2cncc(-c3ccccc3)c2)c(C(N)=O)cc1F [Example 006-351, 6-(((2R,3S)-3-amino-1-cyclopropylbutan-2-yl)amino)-5-fluoro-2-((5-phenylpyridin-3-yl)amino)nicotinamide]
< 65 nM	< 10 nM	C[C@H](N)[C@@H](CC1CC1)Nc1nc(Nc2cncc(-n3nccn3)c2)c(C(N)=O)cc1F [Example 006-352, 2-((5-(2H-1,2,3-triazol-2-yl)pyridin-3-yl)amino)-6-(((2R,3S)-3-amino-1-cyclopropylbutan-2-yl)amino)-5-fluoronicotinamide]
< 65 nM	< 10 nM	C[C@H](N)[C@@H](CC1CC1)Nc1nc(Nc2ccnc(-n3cncn3)c2)c(C(N)=O)cc1F [Example 006-353, 2-((2-(1H-1,2,4-triazol-1-yl)pyridin-4-yl)amino)-6-(((2R,3S)-3-amino-1-cyclopropylbutan-2-yl)amino)-5-fluoronicotinamide]
65 to 130 nM	< 10 nM	C[C@H](N)[C@@H](CC1CC1)Nc1nc(Nc2cncc3ccccc23)c(C(N)=O)cc1F [Example 006-354, 6-(((2R,3S)-3-amino-1-cyclopropylbutan-2-yl)amino)-5-fluoro-2-((isoquinolin-4-yl)amino)nicotinamide]
65 to 130 nM	< 10 nM	COc1cc(Nc2nc(N[C@H](CC3CC3)[C@H](C)N)c(F)cc2C(N)=O)ccn1 [Example 006-355, 6-(((2R,3S)-3-amino-1-cyclopropylbutan-2-yl)amino)-5-fluoro-2-((2-methoxypyridin-4-yl)amino)nicotinamide]
< 65 nM	< 10 nM	C[C@H](N)[C@@H](CC1CC1)Nc1nc(Nc2cccc3c2cnn3C)c(C(N)=O)cc1F [Example 006-356, 6-(((2R,3S)-3-amino-1-cyclopropylbutan-2-yl)amino)-5-fluoro-2-((1-methyl-1H-indazol-4-yl)amino)nicotinamide]
65 to 130 nM	10 to 50 nM	C[C@H](N)[C@@H](CC1CC1)Nc1nc(Nc2cncc(F)c2)c(C(N)=O)cc1F [Example 006-357, 6-(((2R,3S)-3-amino-1-cyclopropylbutan-2-yl)amino)-5-fluoro-2-((5-fluoropyridin-3-yl)amino)nicotinamide]
< 65 nM	< 10 nM	CC[C@@H](Nc1nc(Nc2ccc3cnn(C)c3c2)c(C(N)=O)cc1F)[C@H](C)N [Example 006-358, 6-(((2S,3R)-2-aminopentan-3-yl)amino)-5-fluoro-2-((1-methyl-1H-indazol-6-yl)amino)nicotinamide]
< 65 nM	< 10 nM	CCC[C@@H](Nc1nc(Nc2ccc3cnn(C)c3c2)c(C(N)=O)cc1F)[C@H](C)N [Example 006-359, 6-(((2S,3R)-2-aminohexan-3-yl)amino)-5-fluoro-2-((1-methyl-1H-indazol-6-yl)amino)nicotinamide]
65 to 130 nM	< 10 nM	CCCC[C@H](CN)Nc1nc(Nc2ccc3cnn(C)c3c2)c(C(N)=O)cc1F [Example 006-360, (R)-6-((1-aminohexan-2-yl)amino)-5-fluoro-2-((1-methyl-1H-indazol-6-yl)amino)nicotinamide]
65 to 130 nM	< 10 nM	C[C@H](N)[C@@H](CC1CC1)Nc1nc(Nc2ccc3cnn(C)c3c2)c(C(N)=O)cc1F [Example 006-361, 6-(((2R,3S)-3-amino-1-cyclopropylbutan-2-yl)amino)-5-fluoro-2-((1-methyl-1H-indazol-6-yl)amino)nicotinamide]
130 to 200 nM	< 10 nM	CC[C@H](N)[C@@H](C)Nc1nc(Nc2ccc3c(cnn3CC)c2)c(C(N)=O)cc1F [Example 006-362, 6-(((2R,3S)-3-aminopentan-2-yl)amino)-2-((1-ethyl-1H-indazol-5-yl)amino)-5-fluoronicotinamide]
65 to 130 nM	< 10 nM	CC[C@H](N)[C@@H](C)Nc1nc(Nc2ccc3c(cnn3CCOC)c2)c(C(N)=O)cc1F [Example 006-363, 6-(((2R,3S)-3-aminopentan-2-yl)amino)-5-fluoro-2-((1-(2-methoxyethyl)-1H-indazol-5-yl)amino)nicotinamide]
65 to 130 nM	< 10 nM	CC[C@H](N)[C@@H](CC)Nc1nc(Nc2ccc3c(cnn3C)c2)c(C(N)=O)cc1F [Example 006-364, 6-(((3R,4S)-4-aminohexan-3-yl)amino)-5-fluoro-2-((1-methyl-1H-indazol-5-yl)amino)nicotinamide]
65 to 130 nM	< 10 nM	CC[C@H](N)[C@@H](CC)Nc1nc(Nc2ccc3c(cnn3CC)c2)c(C(N)=O)cc1F [Example 006-365, 6-(((3R,4S)-4-aminohexan-3-yl)amino)-2-((1-ethyl-1H-indazol-5-yl)amino)-5-fluoronicotinamide]
< 65 nM	< 10 nM	C[C@H](N)[C@H](Nc1nc(Nc2ccc3c(cnn3C)c2)c(C(N)=O)cc1F)C1CC1 [Example 006-369, 6-(((1R,2S)-2-amino-1-cyclopropylpropyl)amino)-5-fluoro-2-((1-methyl-1H-indazol-5-yl)amino)nicotinamide]
< 65 nM	< 10 nM	C[C@H](N)[C@H](Nc1nc(Nc2ccc3cnn(C)c3c2)c(C(N)=O)cc1F)C1CC1 [Example 006-370, 6-(((1R,2S)-2-amino-1-cyclopropylpropyl)amino)-5-fluoro-2-((1-methyl-1H-indazol-6-yl)amino)nicotinamide]
65 to 130 nM	< 10 nM	C[C@H](N)[C@H](Nc1nc(Nc2cncc(C3CC3)c2)c(C(N)=O)cc1F)C1CC1 [Example 006-371, 6-(((1R,2S)-2-amino-1-cyclopropylpropyl)amino)-2-((5-cyclopropylpyridin-3-yl)amino)-5-fluoronicotinamide]
